Reference: patent US20200231562A1, “NOVEL MACROLIDE ANTIBIOTICS” (HELMHOLTZ-ZENTRUM FÜR INFEKTIONSFORSCHUNG GMBH, priority 2014, published 2020)
In brackets after ≈: the same amount, converted by molar mass. Like-named read-outs stand apart in the source and are kept apart here. Marks after values point to notes of the source that are not given here.

How the values were obtained:
[1] = test system: S. aureus N315 wildtype (WT); test: Susceptibility (MIC) of S. aureus N315 wildtype; format: cell-based; settings: Staphylococcus aureus
[2] = test system: S. aureus N315 mutant Mt50DscA.1; test: Susceptibility (MIC) of Disciformycin A-resistant mutant; format: cell-based; settings: Staphylococcus aureus
[3] = test system: S. aureus N315 mutant Mt50DscA.3; test: as above; format: cell-based; settings: Staphylococcus aureus
[4] = test system: S. aureus N315 mutant Mt50DscA.5; test: as above; format: cell-based; settings: Staphylococcus aureus
[5] = test system: S. aureus N315 mutant Mt50DscA.6; test: as above; format: cell-based; settings: Staphylococcus aureus
[6] = test system: Pseudomonas aeruginosa DSM 50071; test: MIC by microbroth dilution; format: cell-based; settings: 16 h, 30° C., n.i. = no inhibition up to 67 μg/ml
Experimental: (§1) Bacterial strains. Bacterial wildtype strains used in susceptibility assays were either part of HZI's strain collection or purchased from the German Collection of Microorgansims and Cell Cultures (Deutsche Sammlung von Mikroorganismen und Zellkulturen, DSMZ).
(§2) Minimum inhibitory concentration (MIC) was determined by microbroth dilution. In brief, overnight cultures of bacteria (EBS medium) were diluted to OD600 0.01. Disciformycin A (1) or B (2) dissolved in DMSO was added directly to the cultures in 96-well plates (Sarstedt, flat bottom) in duplicate and the compound was tested in serial dilution. […] After 16 h incubation at 900 rpm and 30° C. on a microplate shaker (Titramax, Heidolph) absorbance at 600 nm was measured using a microplate reader (POLARstar Omega, BMG Labtech). MIC values were determined by sigmoidal curve fitting.

[7] = test system: S. aureus N315 mutant Mt50DscA.2; test: Susceptibility (MIC) of Disciformycin A-resistant mutant; format: cell-based; settings: Staphylococcus aureus
[8] = test system: S. aureus N315 mutant Mt50DscA.4; test: as above; format: cell-based; settings: Staphylococcus aureus
[9] = test system: S. aureus N315 mutant Mt50DscA.8; test: as above; format: cell-based; settings: Staphylococcus aureus
[10] = test system: S. aureus N315 Mt50DscA.9; test: as above; format: cell-based; settings: Staphylococcus aureus
[11] = test system: S. aureus N315 mutant Mt50DscA.10; test: as above; format: cell-based; settings: Staphylococcus aureus
[12] = test system: S. aureus N315 mutant Mt50DscA.11; test: as above; format: cell-based; settings: Staphylococcus aureus
[13] = test system: S. aureus Newman in PMA-differentiated human THP-1 cell line (macrophages); test: Intra-macrophage activity; format: cell-based; settings: at 8×MIC, 18 h, MOI 10, cfu counting
Source text: The PMA-differentiated human THP-1 cell line (macrophages) was used as cellular host for infection with S. aureus Newman at an MOI (multiplicity of infection) of 10. […] Intracellular bacteria were recovered and serial dilutions were streaked out on CASO-Agar for cfu counting. The reference drug rifampicin reduced the number of intracellular bacteria by ca. 4 logs (at 8×MIC).

Bacillus subtilis DSM 10 = test: MIC by microbroth dilution; format: cell-based; settings: 16 h, 30° C., n.i. = no inhibition up to 67 μg/ml
Experimental: as §1, §2

[14] = test system: Chromobacterium violaceum DSM 30191; test: MIC by microbroth dilution; format: cell-based; settings: 16 h, 30° C., n.i. = no inhibition up to 67 μg/ml
Experimental: as §1, §2

[15] = test system: Escherichia coli DSM 1116; test: MIC by microbroth dilution; format: cell-based; settings: 16 h, 30° C., n.i. = no inhibition up to 67 μg/ml
Experimental: as §1, §2

[16] = test system: Micrococcus luteus DSM 20030; test: MIC by microbroth dilution; format: cell-based; settings: 16 h, 30° C., n.i. = no inhibition up to 67 μg/ml
Experimental: as §1, §2

[17] = test system: Mycobacterium diemhoferi DSM 43524; test: MIC by microbroth dilution; format: cell-based; settings: 16 h, 30° C., n.i. = no inhibition up to 67 μg/ml
Experimental: as §1, §2

[18] = test system: Mycobacterium sp. DSM 43270; test: MIC by microbroth dilution; format: cell-based; settings: 16 h, 30° C., n.i. = no inhibition up to 67 μg/ml
Experimental: as §1, §2

[19] = test system: Nocardioides simplex DSM 20130; test: MIC by microbroth dilution; format: cell-based; settings: 16 h, 30° C., n.i. = no inhibition up to 67 μg/ml
Experimental: as §1, §2

[20] = test system: Paenibacillus polymyxa DSM 36; test: MIC by microbroth dilution; format: cell-based; settings: 16 h, 30° C., n.i. = no inhibition up to 67 μg/ml
Experimental: as §1, §2

[21] = test system: Staphylococcus aureus DSM 346; test: MIC by microbroth dilution; format: cell-based; settings: 16 h, 30° C., n.i. = no inhibition up to 67 μg/ml
Experimental: as §1, §2

[22] = test system: Staphylococcus aureus (MRSA) DSM-11822; test: MIC by microbroth dilution; format: cell-based; settings: Staphylococcus aureus, 16 h
Experimental: as §1, §2

[23] = test system: primary monocytes from human peripheral blood; test: MTT assay, cytotoxic activity; format: cell-based; settings: incubation 24 or 48 hours
Experimental: (§3) The cytotoxic activity of gulmirecin A (3) and gulmirecin B (4) against human cells was evaluated in the well-established MTT assay using primary monocytes from human peripheral blood as well as transformed lung epithelial cell A-549 cell and leukemic Mono Mac 6 cells. Furthermore, 3 and 4 were tested against K-562, HUVEC, and HeLa cells.
Human primary monocytes were isolated from leukocyte concentrates, obtained from the Institute of Transfusion Medicine at the University Hospital Jena, Germany. The concentrates were prepared from the blood of healthy adult human donors who had not taken any anti-inflammatory medication for the 10 days prior to blood donation, as described. In brief, freshly withdrawn peripheral blood was pretreated with citrate-phosphate-dextrose solution as anticoagulant and processed with the 2C+ protocol of the Atreus Whole Blood Processing System (Terum BCT). Peripheral blood mononuclear cells (PBMC) were isolated by dextran sedimentation and centrifugation on LSM 1077 lymphocyte separation medium (PAA Laboratories). For isolation of monocytes, the PBMC were washed twice with ice-cold phosphate buffered saline (PBS) and plated (density 2×10^7 cells/ml) in culture flasks (Greiner Bio-One) containing PBMC medium (RPMI 1640 medium supplemented with 100 U/ml penicillin, 100 μg/ml streptomycin and 2 mM L-glutamine) for 1.5 hours at 37° C., 5% CO2. Non-adherent cells were removed; adherent monocytes were scraped, washed with ice-cold PBS and resuspended in ice-cold PBS with a purity of >85%, defined by forward- and side-light scatter properties and detection of the CD14 surface molecule by flow cytometry (BD FACS Calibur). […]
Cells (3×10^5 Mono Mac 6, 1×10^5 A-549 cells, or 2×10^6 monocytes per well) were seeded in a 96-well plate in the respective medium (100 μl/well). […] Absorbance of each well was measured at 570 nm in a Multiskan™ microplate spectrophotometer (Thermo Scientific).

[24] = test system: transformed lung epithelial A-549 cells; test: MTT assay, cytotoxic activity; format: cell-based, human; settings: incubation 24 or 48 hours
Experimental: as §3
(§4) The human monocytic cell line Mono Mac 6 was cultured in RPMI 1640 medium supplemented with FCS (10%, v/v), penicillin (100 U/ml), streptomycin (100 μg/ml), insulin (10 μg/ml), oxaloacetic acid (1 mM), sodium pyruvate (1 mM), and 1× non-essential amino acids at 37° C. and 5% CO2. A-549 cells (DSM ACC-107) were cultured in DMEM high glucose (4.5 g/l) medium supplemented with FCS (10% v/v), penicillin (100 U/ml) and streptomycin (100 μg/ml) at 37° C. in a 5% CO2 incubator. K-562 (DSM ACC 10) and HeLa cells (DSM ACC 57) were grown in RPMI 1640, whereas cells of HUVEC (ATCC CRL-1730) were cultured in DMEM medium. The respective media were supplemented with ultraglutamine 1 (10 ml/l), gentamicin sulfate (500 μl/l), and FCS (10% v/v).
(§5) Cells (3×10^5 Mono Mac 6, 1×10^5 A-549 cells, or 2×10^6 monocytes per well) were seeded in a 96-well plate in the respective medium (100 μl/well). Monocytes were allowed to adhere for 1.5 hours (37° C., 5% CO2) prior to treatment. Test compounds (0.3% DMSO as vehicle) were added to each well and samples were incubated for 48 hrs. Then, 20 μl of thiazolyl blue tetrazolium bromide (MTT, 5 mg/ml PBS) were added, and the incubation was continued at 37° C., 5% CO2 until blue staining of the vehicle control. Formazan formation was stopped by adding 100 μl of lysis buffer (SDS, 10%, w/v in 20 mM HCl) and samples were shaken overnight. Absorbance of each well was measured at 570 nm in a Multiskan™ microplate spectrophotometer (Thermo Scientific).

[25] = test system: leukemic Mono Mac 6 cells; test: MTT assay, cytotoxic activity; format: cell-based, human; settings: incubation 24 or 48 hours
Experimental: as §3, §4
as §5, with “Test compounds (0.3% DMSO as vehicle) were added to each well and samples were incubated for 48 hrs.” left out

Molecule: C/C=C(/C)[C@H]1C/C=C(\C)[C@@H](O[C@H]2O[C@H](CO)[C@@H](O)[C@@H]2O)[C@H](OC(=O)CC(C)C)C(=O)C[C@@H](OC)[C@H](C)C(=O)O1 [Compound 5, disciformycin C]
- MIC [1]: 4000 ng/mL (≈ 7190 nM)
- MIC [2]: > 64000 ng/mL
- MIC [3]: > 64000 ng/mL
- MIC [4]: 32000 ng/mL (≈ 57500 nM)
- MIC [5]: > 64000 ng/mL

Molecule: Gentamycin [reference compound]
- MIC [6]: 42.0^[b] μg/ml

Molecule: CO[C@H]1/C=C/O[C@@]2(C)Oc3c(C)c(O)c4c(O)c(c(/C=N/N5CCN(C)CC5)c(O)c4c3C2=O)NC(=O)/C(C)=C\C=C\[C@H](C)[C@H](O)[C@@H](C)[C@@H](O)[C@@H](C)[C@H](OC(C)=O)[C@@H]1C [rifampicin, reference compound]
- MIC ([1]; S. aureus N315 WT, read-out: MIC): 3 ng/mL (≈ 3.65 nM)
- MIC [2]: 3 ng/mL (≈ 3.65 nM)
- MIC [7]: 5 ng/mL (≈ 6.08 nM)
- MIC [3]: 3 ng/mL (≈ 3.65 nM)
- MIC [8]: 1 ng/mL (≈ 1.22 nM)
- MIC [4]: 1 ng/mL (≈ 1.22 nM)
- MIC [5]: 1 ng/mL (≈ 1.22 nM)
- MIC [9]: 1 ng/mL (≈ 1.22 nM)
- MIC [10]: 1 ng/mL (≈ 1.22 nM)
- MIC [11]: 1 ng/mL (≈ 1.22 nM)
- MIC [12]: 1 ng/mL (≈ 1.22 nM)
- reduction of the number of intracellular bacteria [13]: ca. 4 logs

Molecule: CN(C)[C@@H]1C(O)=C(C(N)=O)C(=O)[C@@]2(O)C(O)=C3C(=O)c4c(O)cccc4[C@@](C)(O)[C@H]3[C@H](O)[C@@H]12.Cl [Oxytetracyclin hydrochloride, reference compound]
- MIC (Bacillus subtilis DSM 10): 4.2^[a] μg/ml
- MIC [14]: 0.83^[a] μg/ml
- MIC [15]: 0.83^[a] μg/ml
- MIC [16]: 0.42^[a] μg/ml
- MIC [17]: ≤0.052^[a] μg/ml
- MIC [18]: 0.52^[a] μg/ml
- MIC [19]: 3.3^[a] μg/ml
- MIC [20]: 1.7^[a] μg/ml
- MIC [21]: 0.21^[a] μg/ml

Molecule: CN[C@H](CC(C)C)C(=O)N[C@H]1C(=O)N[C@@H](CC(N)=O)C(=O)N[C@H]2C(=O)N[C@H]3C(=O)N[C@H](C(=O)N[C@H](C(=O)O)c4cc(O)cc(O)c4-c4cc3ccc4O)[C@H](O)c3ccc(c(Cl)c3)Oc3cc2cc(c3O[C@@H]2O[C@H](CO)[C@@H](O)[C@H](O)[C@H]2O[C@H]2C[C@](C)(N)[C@H](O)[C@H](C)O2)Oc2ccc(cc2Cl)[C@H]1O [Vancomycin, reference compound]
- MIC [22]: 830 ng/mL (≈ 573 nM)

Molecule: CN[C@@H]1C[C@H]2O[C@@](C)([C@@H]1OC)n1c3ccccc3c3c4c(c5c6ccccc6n2c5c31)C(=O)NC4 [staurosporine, reference compound]
- cell viability / cytotoxicity (MTT) [23]: highly cytotoxic
- cell viability / cytotoxicity (MTT) [24]: highly cytotoxic
- cell viability / cytotoxicity (MTT) [25]: highly cytotoxic

Molecule: C/C=C(/C)[C@H]1C/C=C(\C)[C@@H](O[C@H]2O[C@H](CO)[C@@H](O)[C@@H]2O)[C@H](OC(=O)CC(C)C)C(=O)C[C@@H](SC)[C@H](C)C(=O)O1 [Compound 6, disciformycin D]
- MIC [1]: 500 ng/mL (≈ 873 nM)
- MIC [2]: 32000 ng/mL (≈ 55900 nM)
- MIC [3]: 64000 ng/mL (≈ 112000 nM)
- MIC [4]: 4000 ng/mL (≈ 6980 nM)
- MIC [5]: 32000 ng/mL (≈ 55900 nM)
